What all share (type): functional
The subject of assay [1] is Amaranthus tuberculatus. As to the kind of experiment: Herbicidal activity against Amaranthus tuberculatus biotype WCS assessed as visual injury at 18 g/ha applied as spray after 7 days under green house conditions relative to untreated control.
The subject of assay [2] is Amaranthus tuberculatus. The assay can be described thus: Herbicidal activity against Amaranthus tuberculatus biotype ACR assessed as visual injury at 18 g/ha applied as spray after 7 days under green house conditions relative to untreated control.
Assay [3] has as its system Amaranthus tuberculatus. As to the kind of experiment: Herbicidal activity against Amaranthus tuberculatus biotype MCR 16 assessed as visual injury at 18 g/ha applied as spray after 21 days under green house conditions relative to untreated control.
The subject of assay [4] is Amaranthus tuberculatus. As to the kind of experiment: Herbicidal activity against Amaranthus tuberculatus biotype MCR 12 assessed as visual injury at 18 g/ha applied as spray after 21 days under green house conditions relative to untreated control.
Assay [5] relates to Amaranthus tuberculatus. The assay can be described thus: Herbicidal activity against Amaranthus tuberculatus biotype ACR assessed as visual injury at 18 g/ha applied as spray after 14 days under green house conditions relative to untreated control.
Assay [6] has as its system Amaranthus tuberculatus. The assay can be described thus: Herbicidal activity against Amaranthus tuberculatus biotype MCR 16 assessed as visual injury at 18 g/ha applied as spray after 14 days under green house conditions relative to untreated control.
Assay [7] concerns Amaranthus tuberculatus. As to the kind of experiment: Herbicidal activity against Amaranthus tuberculatus biotype MCR 15 assessed as visual injury at 18 g/ha applied as spray after 21 days under green house conditions relative to untreated control.
Assay [8] concerns Amaranthus tuberculatus. The assay can be described thus: Herbicidal activity against Amaranthus tuberculatus biotype WCS assessed as visual injury at 18 g/ha applied as spray after 21 days under green house conditions relative to untreated control.
For assay [9], the system named is Amaranthus tuberculatus. The assay can be described thus: Herbicidal activity against Amaranthus tuberculatus biotype MCR 16 assessed as visual injury at 18 g/ha applied as spray after 7 days under green house conditions relative to untreated control.
Assay [10] deals with Amaranthus tuberculatus. As to the kind of experiment: Herbicidal activity against Amaranthus tuberculatus biotype MCR 15 assessed as visual injury at 18 g/ha applied as spray after 14 days under green house conditions relative to untreated control.
In assay [11] the test system is Amaranthus tuberculatus. As to the kind of experiment: Herbicidal activity against Amaranthus tuberculatus biotype MCR 15 assessed as visual injury at 18 g/ha applied as spray after 7 days under green house conditions relative to untreated control.
In assay [12] the test system is Amaranthus tuberculatus. The assay can be described thus: Herbicidal activity against Amaranthus tuberculatus biotype MCR 12 assessed as visual injury at 18 g/ha applied as spray after 14 days under green house conditions relative to untreated control.
Assay [13] has as its system Amaranthus tuberculatus. The assay can be described thus: Herbicidal activity against Amaranthus tuberculatus biotype MCR 12 assessed as visual injury at 18 g/ha applied as spray after 7 days under green house conditions relative to untreated control.
Assay [14] concerns Amaranthus tuberculatus. As to the kind of experiment: Herbicidal activity against Amaranthus tuberculatus biotype ACR assessed as visual injury at 18 g/ha applied as spray after 21 days under green house conditions relative to untreated control.
The subject of assay [15] is Amaranthus tuberculatus. The assay can be described thus: Herbicidal activity against Amaranthus tuberculatus biotype WCS assessed as visual injury at 18 g/ha applied as spray after 14 days under green house conditions relative to untreated control.
Assay [16] concerns Amaranthus tuberculatus. As to the kind of experiment: Herbicidal activity against Amaranthus tuberculatus biotype MCR 15 assessed as visual injury at 92 g/ha applied as spray after 21 days under green house conditions relative to untreated control.
Assay [17] concerns Amaranthus tuberculatus. As to the kind of experiment: Herbicidal activity against Amaranthus tuberculatus biotype MCR 16 assessed as visual injury at 92 g/ha applied as spray after 21 days under green house conditions relative to untreated control.
For assay [18], the system named is Amaranthus tuberculatus. As to the kind of experiment: Herbicidal activity against Amaranthus tuberculatus biotype ACR assessed as visual injury at 92 g/ha applied as spray after 7 days under green house conditions relative to untreated control.
In assay [19] the test system is Amaranthus tuberculatus. The assay can be described thus: Herbicidal activity against Amaranthus tuberculatus biotype MCR 12 assessed as visual injury at 92 g/ha applied as spray after 21 days under green house conditions relative to untreated control.
The subject of assay [20] is Amaranthus tuberculatus. As to the kind of experiment: Herbicidal activity against Amaranthus tuberculatus biotype MCR 16 assessed as visual injury at 92 g/ha applied as spray after 7 days under green house conditions relative to untreated control.
The subject of assay [21] is Amaranthus tuberculatus. As to the kind of experiment: Herbicidal activity against Amaranthus tuberculatus biotype MCR 16 assessed as visual injury at 92 g/ha applied as spray after 14 days under green house conditions relative to untreated control.
Assay [22] has as its system Amaranthus tuberculatus. The assay can be described thus: Herbicidal activity against Amaranthus tuberculatus biotype WCS assessed as visual injury at 92 g/ha applied as spray after 14 days under green house conditions relative to untreated control.
The test system of assay [23] is Amaranthus tuberculatus. The assay can be described thus: Herbicidal activity against Amaranthus tuberculatus biotype ACR assessed as visual injury at 92 g/ha applied as spray after 14 days under green house conditions relative to untreated control.
The test system of assay [24] is Amaranthus tuberculatus. The assay can be described thus: Herbicidal activity against Amaranthus tuberculatus biotype MCR 12 assessed as visual injury at 92 g/ha applied as spray after 14 days under green house conditions relative to untreated control.
Assay [25] concerns Amaranthus tuberculatus. As to the kind of experiment: Herbicidal activity against Amaranthus tuberculatus biotype MCR 15 assessed as visual injury at 92 g/ha applied as spray after 14 days under green house conditions relative to untreated control.
Assay [26] relates to Amaranthus tuberculatus. As to the kind of experiment: Herbicidal activity against Amaranthus tuberculatus biotype MCR 15 assessed as visual injury at 92 g/ha applied as spray after 7 days under green house conditions relative to untreated control.
Assay [27] relates to Amaranthus tuberculatus. As to the kind of experiment: Herbicidal activity against Amaranthus tuberculatus biotype WCS assessed as visual injury at 92 g/ha applied as spray after 21 days under green house conditions relative to untreated control.
For assay [28], the system named is Amaranthus tuberculatus. The assay can be described thus: Herbicidal activity against Amaranthus tuberculatus biotype WCS assessed as visual injury at 92 g/ha applied as spray after 7 days under green house conditions relative to untreated control.
The subject of assay [29] is Amaranthus tuberculatus. The assay can be described thus: Herbicidal activity against Amaranthus tuberculatus biotype MCR 12 assessed as visual injury at 92 g/ha applied as spray after 7 days under green house conditions relative to untreated control.
The subject of assay [30] is Amaranthus tuberculatus. As to the kind of experiment: Herbicidal activity against Amaranthus tuberculatus biotype ACR assessed as visual injury at 92 g/ha applied as spray after 21 days under green house conditions relative to untreated control.
Assay [31] deals with Amaranthus tuberculatus. As to the kind of experiment: Herbicidal activity against Amaranthus tuberculatus biotype MCR 15 assessed as visual injury at 560 g/ha applied as spray after 7 days under green house conditions relative to untreated control.
The test system of assay [32] is Amaranthus tuberculatus. As to the kind of experiment: Herbicidal activity against Amaranthus tuberculatus biotype WCS assessed as visual injury at 560 g/ha applied as spray after 14 days under green house conditions relative to untreated control.
Assay [33] relates to Amaranthus tuberculatus. As to the kind of experiment: Herbicidal activity against Amaranthus tuberculatus biotype MCR 12 assessed as visual injury at 560 g/ha applied as spray after 14 days under green house conditions relative to untreated control.
In assay [34] the test system is Amaranthus tuberculatus. The assay can be described thus: Herbicidal activity against Amaranthus tuberculatus biotype MCR 12 assessed as visual injury at 560 g/ha applied as spray after 21 days under green house conditions relative to untreated control.
Assay [35] has as its system Amaranthus tuberculatus. The assay can be described thus: Herbicidal activity against Amaranthus tuberculatus biotype ACR assessed as visual injury at 560 g/ha applied as spray after 21 days under green house conditions relative to untreated control.
The test system of assay [36] is Amaranthus tuberculatus. The assay can be described thus: Herbicidal activity against Amaranthus tuberculatus biotype WCS assessed as visual injury at 560 g/ha applied as spray after 7 days under green house conditions relative to untreated control.
Assay [37] concerns Amaranthus tuberculatus. The assay can be described thus: Herbicidal activity against Amaranthus tuberculatus biotype ACR assessed as visual injury at 560 g/ha applied as spray after 7 days under green house conditions relative to untreated control.
Assay [38] deals with Amaranthus tuberculatus. As to the kind of experiment: Herbicidal activity against Amaranthus tuberculatus biotype MCR 16 assessed as visual injury at 560 g/ha applied as spray after 21 days under green house conditions relative to untreated control.
Assay [39] relates to Amaranthus tuberculatus. As to the kind of experiment: Herbicidal activity against Amaranthus tuberculatus biotype MCR 12 assessed as visual injury at 560 g/ha applied as spray after 7 days under green house conditions relative to untreated control.
In assay [40] the test system is Amaranthus tuberculatus. As to the kind of experiment: Herbicidal activity against Amaranthus tuberculatus biotype ACR assessed as visual injury at 560 g/ha applied as spray after 14 days under green house conditions relative to untreated control.
The test system of assay [41] is Amaranthus tuberculatus. As to the kind of experiment: Herbicidal activity against Amaranthus tuberculatus biotype MCR 16 assessed as visual injury at 560 g/ha applied as spray after 7 days under green house conditions relative to untreated control.
For assay [42], the system named is Amaranthus tuberculatus. As to the kind of experiment: Herbicidal activity against Amaranthus tuberculatus biotype MCR 15 assessed as visual injury at 560 g/ha applied as spray after 14 days under green house conditions relative to untreated control.
Assay [43] deals with Amaranthus tuberculatus. As to the kind of experiment: Herbicidal activity against Amaranthus tuberculatus biotype WCS assessed as visual injury at 560 g/ha applied as spray after 21 days under green house conditions relative to untreated control.
Assay [44] concerns Amaranthus tuberculatus. As to the kind of experiment: Herbicidal activity against Amaranthus tuberculatus biotype MCR 15 assessed as visual injury at 560 g/ha applied as spray after 21 days under green house conditions relative to untreated control.
The subject of assay [45] is Amaranthus tuberculatus. The assay can be described thus: Herbicidal activity against Amaranthus tuberculatus biotype MCR 16 assessed as visual injury at 560 g/ha applied as spray after 14 days under green house conditions relative to untreated control.

With `Cc1c(C(=O)c2cnn(C)c2O)ccc(S(C)(=O)=O)c1C1=NOCC1` [TOPRAMEZONE], the Activity in the assay on Amaranthus tuberculatus [1] is 84%; with Amaranthus tuberculatus [2], 69%; with Amaranthus tuberculatus [3] it was 58%; in the assay on Amaranthus tuberculatus [4] it was 36%; in the assay on Amaranthus tuberculatus [5], 93%; in the assay on Amaranthus tuberculatus [6] it was 64%. Further, the Activity with Amaranthus tuberculatus [7] is 42%; in the assay on Amaranthus tuberculatus [8], 100%; with Amaranthus tuberculatus [9], 54%; in the assay with Amaranthus tuberculatus [10], 59%; with Amaranthus tuberculatus [11], 52%; in the assay with Amaranthus tuberculatus [12] it was 42%. In addition, the Activity in the assay on Amaranthus tuberculatus [13] is reported as 41%; in the assay on Amaranthus tuberculatus [14], 96%; in the assay with Amaranthus tuberculatus [15] it was 96%.
Turning to `CS(=O)(=O)c1ccc(C(=O)C2C(=O)CCCC2=O)c(Cl)c1COCC(F)(F)F` [TEMBOTRIONE], the Activity is recorded as 35% in the assay with Amaranthus tuberculatus [16]; 31% in the assay on Amaranthus tuberculatus [17]; 56% with Amaranthus tuberculatus [18]; 17% in the assay with Amaranthus tuberculatus [19]; 43% in the assay on Amaranthus tuberculatus [20]; 46% in the assay on Amaranthus tuberculatus [21]. Moreover, the Activity was 96% in the assay on Amaranthus tuberculatus [22]; 91% in the assay with Amaranthus tuberculatus [23]; 30% with Amaranthus tuberculatus [24]; 34% with Amaranthus tuberculatus [25]; 48% in the assay with Amaranthus tuberculatus [26]; 100% in the assay with Amaranthus tuberculatus [27]. Besides, the Activity with Amaranthus tuberculatus [28] is listed as 84%; in the assay on Amaranthus tuberculatus [29] it was 40%; in the assay with Amaranthus tuberculatus [30], 94%.
Turning to `CCNc1nc(Cl)nc(NC(C)C)n1` [ATRAZINE], the Activity with Amaranthus tuberculatus [31] was found to be 5%; in the assay with Amaranthus tuberculatus [32], 87%; in the assay on Amaranthus tuberculatus [33], 4%; in the assay on Amaranthus tuberculatus [34] it was 4%; with Amaranthus tuberculatus [35] it was 4%; in the assay with Amaranthus tuberculatus [36], 83%. Also, the Activity worked out at 14% in the assay with Amaranthus tuberculatus [37]; 1% with Amaranthus tuberculatus [38]; 7% in the assay with Amaranthus tuberculatus [39]; 8% with Amaranthus tuberculatus [40]; 5% with Amaranthus tuberculatus [41]; 2% with Amaranthus tuberculatus [42]. Further, the values for the Activity in the assay with Amaranthus tuberculatus [43], in the assay on Amaranthus tuberculatus [44] and in the assay on Amaranthus tuberculatus [45] were 81%, 1% and 1%, respectively.

These data come from ChEMBL document CHEMBL3045984, “Resistance to HPPD-inhibiting herbicides in a population of waterhemp (Amaranthus tuberculatus) from Illinois, United States” (2011).
